Experimental findings from patent US7842715B2, “N-benzoyl- and N-benzylpyrrolidin-3-ylamines as histamine-3 antagonists” (Wyeth LLC, priority 2006, dated 2010) are described below.

Structures can show the parent of a compound that is named as a salt.

T1 sequence (Q9Y5N1 whole entry): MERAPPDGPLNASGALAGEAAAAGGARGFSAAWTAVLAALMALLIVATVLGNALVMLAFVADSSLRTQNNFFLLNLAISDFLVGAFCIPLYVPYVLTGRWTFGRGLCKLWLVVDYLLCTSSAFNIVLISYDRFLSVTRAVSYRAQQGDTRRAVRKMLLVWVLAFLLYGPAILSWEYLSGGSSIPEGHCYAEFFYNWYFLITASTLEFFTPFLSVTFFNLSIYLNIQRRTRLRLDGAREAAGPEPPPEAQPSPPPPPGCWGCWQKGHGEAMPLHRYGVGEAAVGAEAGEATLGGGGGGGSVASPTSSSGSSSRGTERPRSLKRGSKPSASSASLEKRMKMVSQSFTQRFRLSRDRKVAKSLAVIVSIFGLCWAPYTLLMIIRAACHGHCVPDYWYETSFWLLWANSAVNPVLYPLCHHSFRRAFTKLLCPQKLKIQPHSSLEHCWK

The first data set concerns the target T1, Histamine Receptor H3 (Homo sapiens, UniProt Q9Y5N1).
T1 construct: expressed in transfected cells
Kind of data set: Cyclic AMP assay for histamine receptor H3 antagonism activity. Type of data set: cell-based. Particulars: stable H3 cells; histamine plus 10 μM forskolin; 30 min at 30° C.; read-out: cAMP Kb. On the procedure: Cyclic AMP Assay for Histamine Receptor H3 Antagonism Activity.
Stable H3 cells are maintained in tissue culture flask in DMEM with high glucose, 10% FBS, 1× pen/strep, 500 ug/ml GY18, until experiment. Culture media is removed and cells are washed twice with PBS w/ Ca++ and Mg++ plus 500 μM IBMX. Cells are then detached by tapping on the side of the flask and resuspend in the same buffer. Two thousand cells/well are incubated with […] histamine plus 10 μM forskolin plus various concentrations of compounds in a total volume of 30 μL in 96 well plates for 30 min at 30° C. Final test compound concentrations range from 10^-4M to 10-9.5M at full log dilutions. Cyclic AMP levels are measured using HitHunter cAMP kit from Discoverx, cat# 900041 according to manufacturer's instruction. Chemiluminescence signals are detected using Top Count (Packard). Cyclic AMP levels in control cells receiving 10 μM forskolin plus 100 nM histamine are considered 0%, and in cells receiving 10 uM forskolin plus 100 nM histamine plus 1 μM clobenpropit are considered 100%. Data are expressed as % control and analyzed using Prizm soft ware. The Kb values are calculated using the following equation, KB=EC50 or IC50/[1+(ligand/Kd)].
On to `Cc1csc2c(Nc3ccc(C(=O)N4CCC(N(C)C)C4)cc3)ncnc12` (stereo not drawn) [Example 7, N-(4-{[3-(dimethylamino)pyrrolidin-1-yl]carbonyl}phenyl)-7-methylthieno[3,2-d]pyrimidin-4-amine], for which the Kb turned out to be 14 nM.
In the case of `CN(C)C1CCN(C(=O)c2ccc(NC(=O)c3ccc4ccccc4n3)cc2)C1` (stereo not drawn) [Example 17, N-(4-{[3-(dimethylamino)pyrrolidin-1-yl]carbonyl}phenyl)quino-line-2-carboxamide], the Kb turned out to be 57 nM.

Test system in a further data set: not given
Assay: not given
Settings: not given
In turn, `Cc1ccc(Oc2ccc(C(=O)N3CC[C@H](N4CCCC4)C3)cc2)cc1` (as salt: hydrochloride) [Example 35, (3′S)-1′-[4-(4-methylphenoxy)benzoyl]-1,3′-bipyrrolidine] returned a melting point of 98 to 100 °C.
`COc1cccc(Oc2ccc(C(=O)N3CC[C@H](N4CCCC4)C3)cc2)c1` (as salt: hydrochloride) [Example 36, (3′S)-1′-[4-(3-methoxyphenoxy)benzoyl]-1,3′-bipyrrolidine]: the melting point was in the range of 82 to 84 °C.
In turn, `Cc1cc(Cl)ccc1Oc1ccc(C(=O)N2CC[C@H](N3CCCC3)C2)cc1` (as salt: hydrochloride) [Example 39, (3′S)-1′-[4-(4-chloro-2-methylphenoxy)benzoyl]-1,3′-bipyrrolidine] returned a melting point of 123 to 125 °C.
Regarding `Cc1ccc(Oc2ccc(C(=O)N3CC[C@H](N4CCCC4)C3)cc2)c(Cl)c1` (as salt: hydrochloride) [Example 40, (3′S)-1′-[4-(2-chloro-4-methylphenoxy)benzoyl]-1,3′-bipyrrolidine], the melting point lay within 124 to 126 °C.
